Here are results for 6 compounds from patent US20260014133A1, “SUBSTITUTED 3-(l-OXOISOINDOLIN-2-YL)PIPERIDINE-2,6-DIONE/2-(2,6-DIOXOPIPERIDIN-3-YL)ISOINDOLINE-l,3-DIONE ANALOGS AS MODULATORS OF CEREBLON PROTEIN” (St. Jude's Chidren's Research Hospital, Inc., priority 2022, published 2026).

Structures are written as SMILES.

Broadly, the IC50 is the midpoint of a concentration-inhibition curve.

Chain of 6×His-CRBN-DDB1 protein (Q96SW2 whole entry): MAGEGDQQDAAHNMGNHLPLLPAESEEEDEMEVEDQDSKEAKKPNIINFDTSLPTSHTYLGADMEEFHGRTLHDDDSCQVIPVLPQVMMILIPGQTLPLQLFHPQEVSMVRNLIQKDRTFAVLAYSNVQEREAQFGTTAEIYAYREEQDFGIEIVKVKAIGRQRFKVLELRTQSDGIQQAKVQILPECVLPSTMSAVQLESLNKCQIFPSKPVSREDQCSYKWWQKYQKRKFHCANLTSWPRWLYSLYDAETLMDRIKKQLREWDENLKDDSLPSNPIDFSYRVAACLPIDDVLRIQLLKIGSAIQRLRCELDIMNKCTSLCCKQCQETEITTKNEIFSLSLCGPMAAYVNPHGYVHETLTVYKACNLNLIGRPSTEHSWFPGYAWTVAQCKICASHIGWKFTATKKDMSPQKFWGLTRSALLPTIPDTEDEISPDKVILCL
Chain of 6×His-CRBN-DDB1 protein (Q16531 whole entry partner): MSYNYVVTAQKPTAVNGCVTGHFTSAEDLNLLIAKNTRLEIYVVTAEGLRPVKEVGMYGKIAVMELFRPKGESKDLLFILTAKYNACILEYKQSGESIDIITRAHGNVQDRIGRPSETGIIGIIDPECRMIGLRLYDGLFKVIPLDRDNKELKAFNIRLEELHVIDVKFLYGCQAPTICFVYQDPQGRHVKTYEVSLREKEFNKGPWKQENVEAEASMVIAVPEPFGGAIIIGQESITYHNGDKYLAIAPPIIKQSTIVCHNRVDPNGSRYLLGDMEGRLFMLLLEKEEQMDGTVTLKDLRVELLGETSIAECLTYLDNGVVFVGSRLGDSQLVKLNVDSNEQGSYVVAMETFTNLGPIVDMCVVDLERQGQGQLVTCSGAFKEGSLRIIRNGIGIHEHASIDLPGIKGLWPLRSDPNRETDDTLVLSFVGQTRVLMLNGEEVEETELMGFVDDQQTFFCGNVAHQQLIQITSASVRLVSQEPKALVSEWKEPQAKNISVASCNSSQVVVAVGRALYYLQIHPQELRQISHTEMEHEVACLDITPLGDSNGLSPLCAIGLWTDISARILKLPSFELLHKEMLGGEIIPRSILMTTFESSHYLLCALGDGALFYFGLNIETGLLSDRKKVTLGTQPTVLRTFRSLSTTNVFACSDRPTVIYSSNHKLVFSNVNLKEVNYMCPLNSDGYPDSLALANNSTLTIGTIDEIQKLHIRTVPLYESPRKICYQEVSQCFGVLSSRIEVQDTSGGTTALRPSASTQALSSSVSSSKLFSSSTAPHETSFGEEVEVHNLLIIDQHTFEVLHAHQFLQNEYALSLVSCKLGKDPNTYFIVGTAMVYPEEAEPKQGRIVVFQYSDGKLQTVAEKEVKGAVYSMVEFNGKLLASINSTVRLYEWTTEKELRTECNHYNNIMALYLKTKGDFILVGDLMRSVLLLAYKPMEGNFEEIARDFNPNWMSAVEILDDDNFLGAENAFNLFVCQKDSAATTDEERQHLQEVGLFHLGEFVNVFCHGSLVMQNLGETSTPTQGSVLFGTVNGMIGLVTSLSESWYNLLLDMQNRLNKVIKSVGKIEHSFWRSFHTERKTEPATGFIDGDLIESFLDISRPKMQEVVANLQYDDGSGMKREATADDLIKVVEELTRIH

The target in this test is 6×His-CRBN-DDB1 protein (Homo sapiens (Human), UniProt Q96SW2). Description: CRBN Fluorescence Polarization Assay. To be noted: competitive fluorescence polarization; Cy5-O-Len probe 30 nM, 6×His-CRBN-DDB1 200 nM; 1 hour at room temperature; mean of three independent determinations; read-out: CRBN FP (IC50). It counts as binding. The procedure:
In this competitive fluorescent polarization assay Cy5 conjugated lenalidomide analog (Cy5-O-Len)^13 was used as a fluorescent probe. 6×His-CRBN-DDB1 protein (200 nM) and Cy5-O-Len probe (30 nM) were combined in 20 mM HEPES pH 7, 150 mM NaCl, 0.005% Tween-20 assay buffer. 20 μL of this assay cocktail was dispensed into wells of Corning 3821 black 384-well plates. Compounds were transferred to the assay plate from a dose-response plate using a Pintool on a Biomek FXP Laboratory Automation Workstation (Beckman Coulter). The plates were incubated in the dark for 1 hour at room temperature and then read on an Envision plate reader (PerkinElmer, Massachusetts, USA). IC50 values were determined using a proprietary software RISE (Robust Investigation of Screening Experiments), developed in house on the Pipeline Pilot platform (Biovia, v. 17.2.0). Data represent the mean of three independent determinations.
Cereblon binding activity was determined as described herein above, and the results are provided below in Table 2 for representative disclosed compounds. Compound number (“Cmpd No.”) refers to the compound number (and associated compound information such as structure, name, etc.) as provided in Table 1. In Table 2 below: cereblon binding IC50 values are categorized as follows: “A” represents IC50 value<1 μM, “B” represents IC50 value between 1 and 10 μM, and “C” represents IC50 value>10 μM.
For the compound `O=C1CCC(N2Cc3cc(NC(=O)c4ccccc4)ccc3C2=O)C(=O)N1` (stereo not drawn) [Compound 4, N-(2-(2,6-dioxopiperidin-3-yl)-1-oxoisoindolin-5-yl)benzamide], the IC50 was under 1000 nM.

For the compound `COc1cc(F)cc(C(=O)Nc2ccc3c(c2)CN(C2CCC(=O)NC2=O)C3=O)c1` (stereo not drawn) [Compound 59, N-(2-(2,6-dioxopiperidin-3-yl)-1-oxoisoindolin-5-yl)-3-fluoro-5-methoxybenzamide], the half-inhibitory concentration (IC50) lay in the range of 1000 to 10000 nM.

As to `Cc1ccc(C(=O)Nc2ccc3c(c2)CN(C2CCC(=O)NC2=O)C3=O)nc1` (stereo not drawn) [Compound 36, N-(2-(2,6-dioxopiperidin-3-yl)-1-oxoisoindolin-5-yl)-5-methylpicolinamide], the IC50 is under 1000 nM.

For `O=C1CCC(N2Cc3cc(NC(=O)Cc4ccccc4Br)ccc3C2=O)C(=O)N1` (stereo not drawn) [Compound 25, 2-(2-bromophenyl)-N-(2-(2,6-dioxopiperidin-3-yl)-1-oxoisoindolin-5-yl)acetamide], the IC50 is under 1000 nM. For the compound `O=C1CCC(N2Cc3cc(NC(=O)c4ccc(F)cc4)ccc3C2=O)C(=O)N1` (stereo not drawn) [Compound 5, N-(2-(2,6-dioxopiperidin-3-yl)-1-oxoisoindolin-5-yl)-4-fluorobenzamide], the IC50 was in the range of 1000 to 10000 nM. Take `CN1CCN(Cc2ccc(C(=O)Nc3ccc4c(c3)CN(C3CCC(=O)NC3=O)C4=O)cc2)CC1` (stereo not drawn) [Compound 31]: the IC50 was in the range of 1000 to 10000 nM.
